In US12662451B2, “Chemical compounds and uses thereof” (GLAXOSMITHKLINE INTELLECTUAL PROPERTY (NO.4) LIMITED, priority 2023, dated 2026):

molecular target: T1, recombinant full-length WRN protein (1-1432) (Homo sapiens, UniProt Q14191); experiment: WRN unwinding activity, fluorogenic 384-well assay (Example A); format: biochemical; details: WRN unwinding activity, 4 hr; Table 2; read-out: 4 hr UNW pIC50 (converted)
T1 construct: recombinant full-length WRN protein (1-1432)
In short: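 Read-out is end-point unwinding of a fluorophore/quencher duplex (ex 525, em 598 nm) after 60 min with 200 μM ATP and 12 nM DNA (2× stocks), EDTA stop. Compound first sat 4 h with 200 pM WRN (2× stock) in pH 8.0 Tris buffer; four-parameter fit gives pIC50.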

T1 sequence (Q14191 whole entry): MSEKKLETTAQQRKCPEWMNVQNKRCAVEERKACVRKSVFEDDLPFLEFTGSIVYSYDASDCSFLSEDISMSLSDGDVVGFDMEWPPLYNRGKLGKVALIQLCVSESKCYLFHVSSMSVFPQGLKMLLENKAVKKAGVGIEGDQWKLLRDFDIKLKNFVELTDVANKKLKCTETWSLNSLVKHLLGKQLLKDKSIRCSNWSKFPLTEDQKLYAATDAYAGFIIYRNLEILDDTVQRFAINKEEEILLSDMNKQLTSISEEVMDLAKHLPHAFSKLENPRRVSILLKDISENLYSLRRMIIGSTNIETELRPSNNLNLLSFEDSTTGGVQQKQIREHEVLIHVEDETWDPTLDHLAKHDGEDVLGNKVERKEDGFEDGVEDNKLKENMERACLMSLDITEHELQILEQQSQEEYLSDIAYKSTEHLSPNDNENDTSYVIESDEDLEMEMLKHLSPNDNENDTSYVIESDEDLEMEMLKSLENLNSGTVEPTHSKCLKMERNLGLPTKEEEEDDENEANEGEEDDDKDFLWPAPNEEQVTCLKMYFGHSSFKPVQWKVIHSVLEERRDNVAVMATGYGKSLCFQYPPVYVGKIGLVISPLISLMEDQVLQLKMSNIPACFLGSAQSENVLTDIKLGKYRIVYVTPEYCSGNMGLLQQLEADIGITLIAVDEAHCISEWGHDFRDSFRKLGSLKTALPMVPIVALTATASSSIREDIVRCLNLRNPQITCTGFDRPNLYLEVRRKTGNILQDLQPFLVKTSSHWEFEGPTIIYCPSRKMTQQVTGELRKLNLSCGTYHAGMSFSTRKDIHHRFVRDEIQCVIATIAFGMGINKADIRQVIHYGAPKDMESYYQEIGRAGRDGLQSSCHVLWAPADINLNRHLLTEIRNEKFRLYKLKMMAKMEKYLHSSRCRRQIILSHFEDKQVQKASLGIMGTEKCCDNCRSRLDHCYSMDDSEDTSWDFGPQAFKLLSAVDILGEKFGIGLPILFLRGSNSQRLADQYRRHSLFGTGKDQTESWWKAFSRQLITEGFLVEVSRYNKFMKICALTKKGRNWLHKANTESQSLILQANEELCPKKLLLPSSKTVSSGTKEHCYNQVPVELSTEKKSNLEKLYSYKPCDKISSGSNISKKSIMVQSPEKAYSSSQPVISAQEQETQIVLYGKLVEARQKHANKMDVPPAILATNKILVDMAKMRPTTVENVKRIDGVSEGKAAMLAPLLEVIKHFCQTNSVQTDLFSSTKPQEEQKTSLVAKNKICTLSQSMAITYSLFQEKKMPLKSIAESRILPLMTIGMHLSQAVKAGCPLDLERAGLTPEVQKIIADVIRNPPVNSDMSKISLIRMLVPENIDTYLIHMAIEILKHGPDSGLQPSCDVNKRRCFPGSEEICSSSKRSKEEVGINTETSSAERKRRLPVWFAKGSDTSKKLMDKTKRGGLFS

| IC50 [nM] | Structure (SMILES) |
| --- | --- |
| 398 | Cc1nc2cc(S(=O)(=O)N(C)c3ccc([C@H]4CCC[C@@H](C(=O)N[C@@H]5C[C@@H]6CC(F)(F)C[C@@H]6C5)[C@@H]4C(=O)O)cc3)ccc2n1C [Example 191, (1R,2R,6S)-2-(((2s,3aR,6aS)-5,5-difluorooctahydropentalen-2-yl)carbamoyl)-6-(4-((N,1,2-trimethyl-1H-benzo[d]imidazole)-5-sulfonamido)phenyl)cyclohexane-1-carboxylic acid] |
| 39800 | Cc1nc2cc(S(=O)(=O)N(C)c3ccc([C@H]4CCC[C@@H](C(=O)N[C@@H]5CCC[C@@H](C(F)(F)F)C5)[C@@H]4C(=O)O)cc3)ccc2n1C [Example 192, (1R,2R,6S)-2-(((1R,3R)-3-(trifluoromethyl)cyclohexyl)carbamoyl)-6-(4-((N,1,2-trimethyl-1H-benzo[d]imidazole)-5-sulfonamido)phenyl)cyclohexane-1-carboxylic acid] |
| 20000 | Cc1nc2cc(S(=O)(=O)N(C)c3ccc([C@H]4CCC[C@@H](C(=O)N[C@]56CC[C@H](CC5)C6)[C@@H]4C(=O)O)cc3)ccc2n1C [Example 193, (1R,2R,6S)-2-(((1r,4R)-bicyclo[2.2.1]heptan-1-yl)carbamoyl)-6-(4-((N,1,2-trimethyl-1H-benzo[d]imidazole)-5-sulfonamido)phenyl)cyclohexane-1-carboxylic acid] |
| 20 | CCC[C@H]1CC[C@@H](NC(=O)[C@@H]2CCC[C@H](c3ccc(N(C)S(=O)(=O)c4ccc5c(c4)nc(C)n5C)cc3)[C@H]2C(=O)O)CC1 [Example 195, (1R,2R,6S)-2-(((1r,4R)-4-propylcyclohexyl)carbamoyl)-6-(4-((N,1,2-trimethyl-1H-benzo[d]imidazole)-5-sulfonamido)phenyl)cyclohexane-1-carboxylic acid] |
| 2510 | Cc1nc2cc(S(=O)(=O)N(C)c3ccc([C@H]4CCC[C@@H](C(=O)N[C@H]5CCCC[C@@H]5C)[C@@H]4C(=O)O)cc3)ccc2n1C [Example 197, (1R,2R,6S)-2-(((1S,2S)-2-methylcyclohexyl)carbamoyl)-6-(4-((N,1,2-trimethyl-1H-benzo[d]imidazole)-5-sulfonamido)phenyl)cyclohexane-1-carboxylic acid] |
| 5.01 | Cc1nc2cc(S(=O)(=O)N(C)c3ccc([C@H]4CCC[C@@H](C(=O)NC56CC(C7CCC7)(C5)C6)[C@@H]4C(=O)O)cc3)ccc2n1C [Example 198, (1R,2R,6S)-2-((3-cyclobutylbicyclo[1.1.1]pentan-1-yl)carbamoyl)-6-(4-((N,1,2-trimethyl-1H-benzo[d]imidazole)-5-sulfonamido)phenyl)cyclohexane-1-carboxylic acid] |
| 25.1 | Cc1nc2cc(S(=O)(=O)N(C)c3ccc([C@H]4CCC[C@@H](COc5ccc(C(F)(F)F)cc5)[C@@H]4C(=O)O)cc3)ccc2n1C [Example 205, (1R,2R,6S)-2-((4-(trifluoromethyl)phenoxy)methyl)-6-(4-((N,1,2-trimethyl-1H-benzo[d]imidazole)-5-sulfonamido)phenyl)cyclohexane-1-carboxylic acid] |
| 316 | C#CC(=O)N(C)c1ccc([C@H]2CCC[C@@H](C(=O)Nc3ccc(C(F)(F)F)cc3F)[C@@H]2C(=O)O)cc1 [Example 229, (1R,2R,6S)-2-((2-fluoro-4-(trifluoromethyl)phenyl)carbamoyl)-6-(4-(N-methylpropiolamido)phenyl)cyclohexane-1-carboxylic acid] |
| 6.31 | CN(c1ccc([C@H]2CCC[C@@H](C(=O)Nc3ccc(C(F)(F)F)cc3F)[C@@H]2C(=O)O)cc1)S(=O)(=O)c1ccc(C=O)c(O)c1 [Example 276, (1R,2R,6S)-2-((2-fluoro-4-(trifluoromethyl)phenyl)carbamoyl)-6-(4-((4-formyl-3-hydroxy-N-methylphenyl)sulfonamido)phenyl)cyclohexane-1-carboxylic acid] |
